Source: ChEMBL document CHEMBL4411274, “Recent advances of tetrazole derivatives as potential anti-tubercular and anti-malarial agents” (Eur J Med Chem, 2019)
In brackets after ≈: the same amount, converted by molar mass.

What was measured:
[1] = test system: Mycobacterium tuberculosis; test: Antibacterial activity against Mycobacterium tuberculosis H37Rv by resazurin dye-based assay; assay type: functional
[2] = test system: Mycobacterium tuberculosis; test: Antibacterial activity against Mycobacterium tuberculosis H37Rv; assay type: functional
[3] = test system: Mycobacterium tuberculosis; test: Antibacterial activity against Mycobacterium tuberculosis H37Rv by MABA; assay type: functional
Mycobacterium kansasii [4] = test: Potency index, ratio of isoniazid MIC to compound MIC for Mycobacterium kansasii CNCTC My 235/80; assay type: functional
Mycobacterium avium [5] = test: Antibacterial activity against Mycobacterium avium CNCTC My 330/88; assay type: functional
Mycobacterium kansasii [6] = test: Antibacterial activity against Mycobacterium kansasii CNCTC My 235/80; assay type: functional
Mycobacterium avium [7] = test: Potency index, ratio of isoniazid MIC to compound MIC for Mycobacterium avium CNCTC My 330/88; assay type: functional
[8] = test system: Mycobacterium tuberculosis; test: Antibacterial activity against Mycobacterium tuberculosis CNCTC My 331/88; assay type: functional
Mycobacterium kansasii [9] = test: Antibacterial activity against Mycobacterium kansasii isolate 6509/96; assay type: functional
Plasmodium falciparum [10] = test: Antimalarial activity against chloroquine resistant Plasmodium falciparum FcB1R; assay type: functional, organism-based
[11] = test system: Mycobacterium tuberculosis; test: Antibacterial activity against Mycobacterium tuberculosis H37Rv after 5 days; assay type: functional; settings: 120 h
Plasmodium falciparum [12] = test: Antimalarial activity against ring-stage multidrug-resistant Plasmodium falciparum Dd2 preincubated for 6 hrs followed by compound wash and measured after 66 hrs by Giemsa-staining based light microscopic analysis; assay type: functional, organism-based
Plasmodium falciparum [13] = test: Antimalarial activity against ring-stage chloroquine-susceptible Plasmodium falciparum 3D7 preincubated for 6 hrs followed by compound wash and measured after 66 hrs by Giemsa-staining based light microscopic analysis; assay type: functional, organism-based

CO[C@H]1/C=C/O[C@@]2(C)Oc3c(C)c(O)c4c(O)c(c(/C=N/N5CCN(C)CC5)c(O)c4c3C2=O)NC(=O)/C(C)=C\C=C\[C@H](C)[C@H](O)[C@@H](C)[C@@H](O)[C@@H](C)[C@H](OC(C)=O)[C@@H]1C [RIFAMPIN]
MIC [1]: 0.006 µg/mL (≈ 0.00729 µM) | MIC [2]: 0.25 to 40 µg/mL (≈ 0.304 to 48.6 µM)

CC[C@@H](CO)NCCN[C@@H](CC)CO [ETHAMBUTOL]
MIC [3]: 1.56 µg/mL (≈ 7.64 µM) | MIC [2]: 2 µg/mL (≈ 9.79 µM)

Clc1ccc(-n2nnnc2SCc2ccccc2)cc1Cl
Ratio (Mycobacterium kansasii [4]): >4 | MIC (Mycobacterium avium [5]): 8 to 250 µg/mL (≈ 23.7 to 741 µM) | MIC (Mycobacterium kansasii [6]): 8 to 250 µg/mL (≈ 23.7 to 741 µM) | Ratio (Mycobacterium avium [7]): >4 | MIC [8]: 8 to 62.5 µg/mL (≈ 23.7 to 185 µM) | MIC (Mycobacterium kansasii [9]): 8 to 62.5 µg/mL (≈ 23.7 to 185 µM)

Cc1ccc(-n2c(-c3cc4cc(Cl)ccc4n4nnnc34)nc(-c3ccccc3)c2-c2ccccc2)cc1
MIC [2]: 25 µg/mL (≈ 48.7 µM)

CC1=C(CCc2nnnn2CCCCC#N)C(=O)c2ccccc2C1=O
IC50 (Plasmodium falciparum [10]): 0.9 to 1.4 µM

NNC(=O)c1ccncc1 [ISONIAZID]
MIC [1]: 0.063 µg/mL (≈ 0.459 µM) | MIC [8]: 0.5 µg/mL (≈ 3.65 µM) | MIC [2]: 0.2 µg/mL (≈ 1.46 µM) | MIC (Mycobacterium kansasii [9]): 4 µg/mL (≈ 29.2 µM)

CC1=C(CCc2nnnn2CCCC#N)C(=O)c2ccccc2C1=O
IC50 (Plasmodium falciparum [10]): 0.9 to 1.4 µM

c1cnc(-c2nn3nnnc3o2)cn1
MIC [2]: 50 µg/mL (≈ 264 µM)

CC1=C(CCc2nnnn2CCCCCC#N)C(=O)c2ccccc2C1=O
IC50 (Plasmodium falciparum [10]): 0.9 to 1.4 µM

Cn1nnnc1SC1=CS(=O)(=O)c2ccccc21
MIC [11]: 2.6 µM (≈ 0.729 µg/mL)

Cc1ccc2c(c1)cc(C1C3=C(CC(C)(C)CC3=O)N(c3ccc(F)cc3)C3=C1C(=O)CC(C)(C)C3)c1nnnn12
MIC [2]: 50 µg/mL (≈ 91 µM)

C1C2CC3CC1CC(C2)C31OOC2(CCC(Nc3nnn[nH]3)CC2)OO1 (centres undefined)
IC50 (Plasmodium falciparum [12]): 0.0435 µM | IC50 (Plasmodium falciparum [13]): 0.063 µM

CN[C@@H]1[C@H](O[C@H]2[C@H](O[C@H]3[C@H](O)[C@@H](O)[C@H](N=C(N)N)[C@@H](O)[C@@H]3N=C(N)N)O[C@@H](C)[C@]2(O)C=O)O[C@@H](CO)[C@H](O)[C@H]1O [STREPTOMYCIN]
MIC [2]: 4 µg/mL (≈ 6.88 µM)
